Drawing on US11524966B1 (Valo Early Discovery, Inc., priority 2017, dated 2022), this text covers IC50 for 24 compounds.

Broadly, the IC50 is the concentration that inhibits the measured activity by half.

The target in this assay is T1, USP25 (USP25-His6, Boston Biochem E-546) (Homo sapiens, UniProt Q9UHP3).
T1 construct: His6; purchased Boston Biochem E-546
T1 sequence (Q9UHP3 1-1055): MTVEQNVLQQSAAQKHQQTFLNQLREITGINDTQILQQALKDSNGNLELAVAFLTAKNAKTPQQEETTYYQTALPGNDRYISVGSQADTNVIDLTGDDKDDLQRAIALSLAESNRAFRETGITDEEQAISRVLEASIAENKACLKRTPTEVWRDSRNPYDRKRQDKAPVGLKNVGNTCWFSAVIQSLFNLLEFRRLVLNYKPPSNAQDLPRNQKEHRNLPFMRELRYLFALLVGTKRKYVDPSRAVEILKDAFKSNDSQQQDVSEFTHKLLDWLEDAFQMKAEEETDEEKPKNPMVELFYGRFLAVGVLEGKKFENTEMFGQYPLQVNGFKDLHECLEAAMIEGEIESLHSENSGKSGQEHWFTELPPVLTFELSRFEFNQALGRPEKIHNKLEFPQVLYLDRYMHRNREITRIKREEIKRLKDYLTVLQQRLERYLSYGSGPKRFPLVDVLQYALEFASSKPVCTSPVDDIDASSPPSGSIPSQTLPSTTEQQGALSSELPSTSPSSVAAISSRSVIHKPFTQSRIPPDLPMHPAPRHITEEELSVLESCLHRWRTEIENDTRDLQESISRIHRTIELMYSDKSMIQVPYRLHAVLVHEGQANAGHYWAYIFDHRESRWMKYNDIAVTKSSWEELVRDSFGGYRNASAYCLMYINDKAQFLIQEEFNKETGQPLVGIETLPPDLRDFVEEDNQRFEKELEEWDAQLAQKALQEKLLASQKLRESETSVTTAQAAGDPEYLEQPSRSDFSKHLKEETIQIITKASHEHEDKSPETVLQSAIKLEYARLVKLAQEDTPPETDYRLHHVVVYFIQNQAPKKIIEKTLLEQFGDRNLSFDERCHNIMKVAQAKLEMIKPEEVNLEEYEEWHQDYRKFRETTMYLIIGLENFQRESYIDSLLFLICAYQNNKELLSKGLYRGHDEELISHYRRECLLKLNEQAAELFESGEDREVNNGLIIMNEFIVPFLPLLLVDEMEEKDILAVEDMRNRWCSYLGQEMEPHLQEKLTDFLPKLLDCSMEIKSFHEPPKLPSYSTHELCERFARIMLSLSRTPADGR
Nature of the assay: Ubiquitin-Rhodamine 110 Assay for USP25 Activity, Example A-2. It is filed as biochemical. Particulars: Ubiquitin-Rhodamine 110 assay, Example A-2; read-out: USP25 A-2 IC50 range. The method, boiled down: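 Steps: compound dilutions (top 25 μM, 3-fold, 10 points) were preincubated 30 min with 75 pM USP25-His6; 25 nM Ub-Rh110 substrate was added under initial-velocity conditions; after 45 min at room temperature, 10 mM citric acid stopped the reaction before fluorescence reading.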
As to `Cc1ccc2c(N)c(C(=O)N[C@H]3COc4cc(N5C[C@@H]6C[C@H]5CN6)c(F)c(F)c4C3)sc2n1` [Example 112, 3-amino-N-[(3R)-7-[(1S,4S)-2,5-diazabicyclo[2.2.1]heptan-2-yl]-5,6-difluoro-3,4-dihydro-2H-1-benzopyran-3-yl]-6-methylthieno[2,3-b]pyridine-2-carboxamide], the IC50 lay in the range of 200 to 2000 nM.

Consider `Cc1cc(C)c2c(N)c(C(=O)N[C@H]3COc4cc(N5CCNCC5)c(F)c(F)c4C3)sc2n1` [Example 159, 3-amino-N-[(3R)-5,6-difluoro-7-(piperazin-1-yl)-3,4-dihydro-2H-1-benzopyran-3-yl]-4,6-dimethylthieno[2,3-b]pyridine-2-carboxamide], for which the IC50 is above 2000 nM.

Regarding `COC[C@@H]1CN(c2ccc3c(c2)OC[C@H](NC(=O)c2sc4nc(C)ccc4c2N)C3)C[C@@H]1N` [Example 161, 3-amino-N-[(3R)-7-[(3R,4R)-3-amino-4(methoxymethyl)pyrrolidin-1-yl]-3,4-dihydro-2H-1-benzopyran-3-yl]-6-methylthieno[2,3-b]pyridine-2-carboxamide], the IC50 lay within 200 to 2000 nM.

Take `CO[C@H]1CN(c2cc3c(cc2C#N)C[C@@H](NC(=O)c2sc4nc(C)cnc4c2N)CO3)C[C@@H]1N` [Example 176, 7-amino-N-[(3R)-7-[(3S,4S)-3-amino-4-methoxypyrrolidin-1-yl]-6-cyano-3,4-dihydro-2H-1-benzopyran-3-yl]-3-methylthieno[2,3-b]pyrazine-6-carboxamide]: the IC50 was 50 to 200 nM.

With `CO[C@H]1CN(c2ccc3c(c2)OC[C@H](NC(=O)c2sc4nc(C)ccc4c2N)C3)CC[C@@H]1N` [Example 128, 3-amino-N-[(3R)-7-[(3S,4S)-4-amino-3-methoxypiperidin-1-yl]-3,4-dihydro-2H-1-benzopyran-3-yl]-6-methylthieno[2,3-b]pyridine-2-carboxamide], the IC50 lay in the range of 200 to 2000 nM.

Take `Cc1ccc2c(N)c(C(=O)N[C@H]3COc4c(F)c(N5C[C@H]6C[C@@H]5CN6)cc(F)c4C3)sc2n1` [Example 111, 3-amino-N-[(3R)-7-[(1R,4R)-2,5-diazabicyclo[2.2.1]heptan-2-yl]-5,8-difluoro-3,4-dihydro-2H-1-benzopyran-3-yl]-6-methylthieno[2,3-b]pyridine-2-carboxamide]: the IC50 lay within 50 to 200 nM.

Turning to `CO[C@H]1CN(c2cc(F)c3c(c2)CC[C@H](NC(=O)c2sc4nc(C)ccc4c2N)C3)C[C@@H]1N` [Example 136, 3-amino-N-[(2S)-6-[(3S,4S)-3-amino-4-methoxypyrrolidin-1-yl]-8-fluoro-1,2,3,4-tetrahydronaphthalen-2-yl]-6-methylthieno[2,3-b]pyridine-2-carboxamide], the IC50 was above 2000 nM.

Consider `CO[C@H]1CN(c2cc(F)c3c(c2)OC[C@H](NC(=O)c2sc4nc(C)ccc4c2N)C3)C[C@H]1N` [Example 146], for which the IC50 fell in the range of 200 to 2000 nM.

Consider `Cc1ccc2c(N)c(C(=O)N[C@H]3COc4cc(N5C[C@H](OC6CC6)[C@@H](N)C5)ccc4C3)sc2n1` [Example 140, 3-amino-N-[(3R)-7-[(3S,4S)-3-amino-4-cyclopropoxypyrrolidin-1-yl]-3,4-dihydro-2H-1-benzopyran-3-yl]-6-methylthieno[2,3-b]pyridine-2-carboxamide], for which the IC50 was 200 to 2000 nM.

Take `Cc1ccc2c(N)c(C(=O)N[C@H]3COc4cc([C@H]5C[C@@H](N)C5)ccc4C3)sc2n1` [Example 123, 3-amino-6-methyl-N-[(3R)-7-[(1s,3S)-3-aminocyclobutyl]-3,4-dihydro-2H-1-benzopyran-3-yl]thieno[2,3-b]pyridine-2-carboxamide]: the IC50 fell in the range of 200 to 2000 nM.

Regarding `Cc1cnc2c(N)c(C(=O)N[C@H]3COc4cc(N5CC6CCC(C5)N6)c(F)c(F)c4C3)sc2n1` [Example 97, 7-amino-N-[(3R)-7-{3,8-diazabicyclo[3.2.1]octan-3-yl]-5,6-difluoro-3,4-dihydro-2H-1-benzopyran-3-yl]-3-methylthieno[2,3-b]pyrazine-6-carboxamide], the IC50 lay in the range of 1 to 50 nM.

For `CCO[C@H]1CN(c2ccc3c(c2)OC[C@H](NC(=O)c2sc4nc(C)ccc4c2N)C3)C[C@H]1N` [Example 152], the half-inhibitory concentration (IC50) fell in the range of 200 to 2000 nM.

As to `CCO[C@@H]1CN(c2ccc3c(c2)OC[C@H](NC(=O)c2sc4nc(C)ccc4c2N)C3)C[C@@H]1N` [Example 151, 3-amino-N-[(3R)-7-[(3S,4R)-3-amino-4-ethoxypyrrolidin-1-yl]-3,4-dihydro-2H-1-benzopyran-3-yl]-6-methylthieno[2,3-b]pyridine-2-carboxamide], the IC50 was 200 to 2000 nM.

Take `Cc1ccc2c(N)c(C(=O)N[C@@H]3CCc4c(ccc(N5CC6CNCC(C5)O6)c4F)C3)sc2n1` [Example 100, 3-amino-N-[(2R)-5-fluoro-6-{9-oxa-3,7-diazabicyclo[3.3.1]nonan-3-yl}-1,2,3,4-tetrahydronaphthalen-2-yl]-6-methylthieno[2,3-b]pyridine-2-carboxamide]: the IC50 was above 2000 nM.

As for `COC[C@H]1CN(c2ccc3c(c2)OC[C@H](NC(=O)c2sc4nc(C)ccc4c2N)C3)C[C@H]1N` [Example 162, 3-amino-N-[(3R)-7-[(3S,4S)-3-amino-4-(methoxymethyl)pyrrolidin-1-yl]-3,4-dihydro-2H-1-benzopyran-3-yl]-6-methylthieno[2,3-b]pyridine-2-carboxamide], the IC50 lay in the range of 50 to 200 nM.

For the compound `Cc1ccc2c(N)c(C(=O)N[C@H]3COc4c(F)c(N5C[C@@H]6C[C@H]5CN6)cc(F)c4C3)sc2n1` [Example 110, 3-amino-N-[(3R)-7-[(1S,4S)-2,5-diazabicyclo[2.2.1]heptan-2-yl]-5,8-difluoro-3,4-dihydro-2H-1-benzopyran-3-yl]-6-methylthieno[2,3-b]pyridine-2-carboxamide], the IC50 lay within 50 to 200 nM.

On to `CO[C@@H]1CN(c2ccc3c(c2)OC[C@H](NC(=O)c2sc4nc(C)ccc4c2N)C3)C[C@@H]1N` [Example 121, 3-amino-N-[(3R)-7-[(3S,4R)-3-amino-4-methoxypyrrolidin-1-yl]-3,4-dihydro-2H-1-benzopyran-3-yl]-6-methylthieno[2,3-b]pyridine-2-carboxamide], for which the IC50 fell in the range of 200 to 2000 nM.

Consider `CCO[C@H]1CN(c2ccc3c(c2)OC[C@H](NC(=O)c2sc4nc(C)ccc4c2N)C3)C[C@@H]1N` [Example 115, 3-amino-N-[(3R)-7-[(3S,4S)-3-amino-4-ethoxypyrrolidin-1-yl]-3,4-dihydro-2H-1-benzopyran-3-yl]-6-methylthieno[2,3-b]pyridine-2-carboxamide], for which the IC50 lay in the range of 200 to 2000 nM.

In the case of `CO[C@H]1CN(c2ccc3c(c2)CC[C@H](NC(=O)c2sc4nc(C)cnc4c2N)C3)C[C@@H]1N` [Example 130, 7-amino-N-[(2S)-6-[(3S,4S)-3-amino-4-methoxypyrrolidin-1-yl]-1,2,3,4-tetrahydronaphthalen-2-yl]-3-methylthieno[2,3-b]pyrazine-6-carboxamide], the IC50 lay in the range of 200 to 2000 nM.

For `CO[C@H]1CN(c2ccc3c(c2)OC[C@H](NC(=O)c2sc4nc(C)sc4c2N)C3)C[C@H]1N` [Example 150], the IC50 is 200 to 2000 nM.

`CO[C@@H]1CCN(c2ccc3c(c2)OC[C@H](NC(=O)c2sc4nc(C)ccc4c2N)C3)C[C@H]1N` [Example 120, 3-amino-N-[(3R)-7-[(3R,4R)-3-amino-4-methoxypiperidin-1-yl]-3,4-dihydro-2H-1-benzopyran-3-yl]-6-methylthieno[2,3-b]pyridine-2-carboxamide]: the IC50 was in the range of 200 to 2000 nM.

As for `Cc1cc(C)c2c(N)c(C(=O)N[C@@H]3COc4cc(N5CCNCC5)c(F)c(F)c4C3)sc2n1` [Example 160, 3-amino-N-[(3S)-5,6-difluoro-7-(piperazin-1-yl)-3,4-dihydro-2H-1-benzopyran-3-yl]-4,6-dimethylthieno[2,3-b]pyridine-2-carboxamide], the IC50 was 200 to 2000 nM.

As for `CO[C@@H]1CN(c2cc(F)c3c(c2)OC[C@H](NC(=O)c2sc4nc(C)ccc4c2N)C3)C[C@@H]1N` [Example 145, 3-amino-N-[(3R)-7-[(3S,4R)-3-amino-4-methoxypyrrolidin-1-yl]-5-fluoro-3,4-dihydro-2H-1-benzopyran-3-yl]-6-methylthieno[2,3-b]pyridine-2-carboxamide], the IC50 fell in the range of 200 to 2000 nM.

In the case of `COC[C@H]1CNCCN1c1ccc2c(c1)OC[C@H](NC(=O)c1sc3nc(C)ccc3c1N)C2` [Example 156, 3-amino-N-[(3R)-7-[(21)-2-(methoxymethyl)piperazin-1-yl]-3,4-dihydro-2H-1-benzopyran-3-yl]-6-methylthieno[2,3-b]pyridine-2-carboxamide], the IC50 fell in the range of 200 to 2000 nM.
